From US8461128B2, “Anti-microbial agents and uses thereof” (priority 2005, dated 2013)
Converted amounts (≈) assume the structure as drawn. “And” between values parts separate entries of the source, which are not always exact repeats. Equal entries are not always repeated. Where two headings read alike, the source gives them in different places.

Key:
[1] = biological target: T1, YbtE (Yersinia pestis, UniProt Q56950); assay: biochemical; assay type: biochemical
[2] = system: M. tuberculosis H37Rv; assay: microbe, parasite or virus in culture; assay type: cell-based, Mycobacterium tuberculosis
[3] = system: Y. pestis KIM6-2082.1+; assay: microbe, parasite or virus in culture; assay type: cell-based, Yersinia pestis
[4] = biological target: T1, YbtE; assay: biochemical
[5] = biological target: T1, YbtE; conditions: cited from earlier work
[6] = Isotopic stability in D2O (NMR); assay type: physicochemical; conditions: room temperature
[7] = system: MBT production in M. tuberculosis; assay type: cell-based, Mycobacterium tuberculosis
[8] = system: M. tuberculosis H37Rv reference strain; conditions: Wanger et al. 1996; cited from earlier work
[9] = system: 92 Y. pestis strains; conditions: cited from earlier work
[10] = Mycobacterium tuberculosis, H37RV

T1 sequence (Q56950 1-525): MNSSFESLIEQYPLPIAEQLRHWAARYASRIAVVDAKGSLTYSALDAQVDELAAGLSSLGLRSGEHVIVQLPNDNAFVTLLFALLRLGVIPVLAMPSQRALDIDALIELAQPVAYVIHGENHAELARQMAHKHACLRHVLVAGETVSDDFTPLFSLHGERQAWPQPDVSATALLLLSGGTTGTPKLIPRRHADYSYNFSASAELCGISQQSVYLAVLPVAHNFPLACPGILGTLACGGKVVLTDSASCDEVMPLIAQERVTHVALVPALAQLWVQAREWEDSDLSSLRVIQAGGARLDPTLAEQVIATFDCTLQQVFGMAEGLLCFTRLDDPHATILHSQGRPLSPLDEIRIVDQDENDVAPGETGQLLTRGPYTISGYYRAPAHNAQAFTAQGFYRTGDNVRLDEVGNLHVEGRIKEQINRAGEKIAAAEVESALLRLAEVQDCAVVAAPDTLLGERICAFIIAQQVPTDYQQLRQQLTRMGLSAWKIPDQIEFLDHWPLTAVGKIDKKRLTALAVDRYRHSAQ

## CC(OS(=O)(=O)NC(=O)c1ccccc1O)[C@H]1O[C@@H](n2cnc3c(N)ncnc32)[C@H](O)[C@@H]1O (mixture of isomers) [(RS)-5′-methyl-salicyl-AMS]
[1]; IC50
  IC50: 0.009 µM

## COc1ccccc1C(=O)NS(=O)(=O)OC[C@H]1O[C@@H](n2cnc3c(N)ncnc32)[C@H](O)[C@@H]1O [2-methoxybenzoyl-AMS]
[1]; IC50
  IC50: > 0.08 µM and 0.065 µM
[2]; [10]
  IC50: > 200 µM
  MIC90: > 200 µM

## CC(=O)Oc1ccccc1C(=O)NS(=O)(=O)OC[C@H]1O[C@@H](n2ccc3ccccc32)[C@H](OC(C)=O)[C@@H]1OC(C)=O [2′,2″,3′-triacetylsalicyl-IRMS]
[1]; IC50
  IC50: 1.8 µM
[2]
  IC50: 25 µM and 22 µM and 33 µM and 31 µM and 35 µM
[2]; [10]
  IC50: 24 µM
  MIC90: ~50 µM (≈ 28.7 µg/mL)
[3]; Yersinia pestis
  MIC90: ~500 µM (≈ 287 µg/mL)

## CC(=O)O[C@@H]1[C@H](OC(C)=O)[C@@H](COS(=O)(=O)NC(=O)c2ccccc2O)O[C@H]1n1cnc2c(N)ncnc21 [2′,3′-diacetyl-salicyl-AMS]
[2]; [10]
  MIC90: > 200 µM

## CC(=O)O[C@@H]1[C@H](OC(C)=O)[C@@H](COS(=O)(=O)NC(=O)c2ccccc2O)O[C@H]1n1ccc2ccccc21 [2′,3′-diacetylsalicyl-IRMS]
[1]; IC50
  IC50: 3.9 µM
[2]; [10]
  IC50: > 200 µM
  MIC90: > 200 µM
[3]; Yersinia pestis
  IC50: > 200 µM
  MIC90: > 200 µM

## Nc1ncnc2c1ncn2[C@@H]1O[C@H](COS(=O)(=O)NC(=O)c2ccc(O)cc2)[C@@H](O)[C@H]1O [4-hydroxybenzoyl-AMS]
[1]; IC50
  IC50: > 0.08 µM and 6 µM
[2]
  IC50: 110 µM
[2]; [10]
  IC50: > 200 µM
  MIC90: > 200 µM

## Cc1cccc(O)c1C(=O)NS(=O)(=O)OC[C@H]1O[C@@H](n2cnc3c(N)ncnc32)[C@H](O)[C@@H]1O [6-methylsalicyl-AMS]
[1]; IC50
  IC50: 0.023 µM

## Nc1ncnc2c1ncn2[C@@H]1O[C@H](COS(N)(=O)=O)[C@@H](O)[C@H]1O [AMS, 5′-O-Sulfamoyladenosine, reference compound]
[1]
  inhibition of salicylation: did not inhibit salicylation
[2]
  IC50: 39 µM and 43 µM and 55 µM
[2]; [10]
  IC50: 35 µM
  MIC90: ~100 µM (≈ 34.6 µg/mL)
[4]
  inhibition of adenylation: did not inhibit adenylation

## Nc1ncnc2c1ncn2[C@@H]1O[C@H](COP(=O)(O)OP(=O)(O)OP(=O)(O)O)[C@@H](O)[C@H]1O [ATP]
[4]; read-out: Km ATP
  Km: 172 µM
[5]; read-out: Km ATP
  Km: 350 µM

## NS(=O)(=O)OC[C@H]1O[C@@H](n2ccc3ccccc32)[C@H](O)[C@@H]1O [IRMS]
[1]; IC50
  IC50: > 20 µM
[2]; [10]
  IC50: > 200 µM
  MIC90: > 200 µM

## CC(=O)NS(=O)(=O)OC[C@H]1O[C@@H](n2cnc3c(N)ncnc32)[C@H](O)[C@@H]1O [acetyl-AMS]
[1]; IC50
  IC50: > 400 µM

## Nc1ncnc2c1ncn2[C@@H]1O[C@H](COS(=O)(=O)NC(=O)c2ccccc2)[C@@H](O)[C@H]1O [benzoyl-AMS]
[1]; IC50
  IC50: 0.004 µM and 0.012 µM
[2]
  IC50: 105 µM and 133 µM
[2]; [10]
  MIC90: > 200 µM
[3]
  IC50: 500 µM
[3]; Yersinia pestis
  MIC90: > 500 µM

## Nc1ncnc2c1nc1n2[C@@H]2O[C@H](COS(=O)(=O)NC(=O)CCCCC1)[C@@H](O)[C@H]2O [cyclo-hexanoyl-AMS]
[1]; IC50
  IC50: > 40 µM

## Nc1ncnc2c1nc1n2[C@@H]2O[C@H](COS(=O)(=O)NC(=O)CCCC#C1)[C@@H](O)[C@H]2O [cyclo-hexynoyl-AMS]
[1]; IC50
  IC50: > 40 µM

## NNC(=O)c1ccncc1 [isoniazid, reference compound]
[2]
  IC50: 0.11 µM and 0.08 µM and 0.1 µM
  MIC90: 0.16 µM (≈ 0.0219 µg/mL)
[2]; [10]
  IC50: 0.12 µM
  MIC90: 0.2 µM (≈ 0.0274 µg/mL)

## Nc1ccc(C(=O)O)c(O)c1 [p-aminosalicylic acid, reference compound]
[2]
  IC50: 0.08 µM
  iron-deficient media selectivity: do not exhibit iron-deficient media selectivity
[2]; [10]
  IC50: 0.09 µM
  MIC90: 0.78 µM (≈ 0.119 µg/mL)

## Nc1ncnc2c1ncn2[C@@H]1O[C@H](COS(=O)(=O)NC(=O)c2ccccc2O)[C@@H](O)[C@H]1O [salicyl-AMS, 5′-O—[N-(salicyl)sulfamoyl]-adenosine]
[1]; IC50
  IC50: 0.0145 µM and 0.009 µM
[1]; read-out: IC50
  IC50: 0.0479 µM
[6]
  isotopically stable in D2O: ≥ 54 days
[7]
  MBT production: virtually undetectable
[2]
  increase of IC50, iron-supplemented vs iron-deficient: 18 fold
[2]; Mycobacterium tuberculosis, H37RV, read-out: MIC95, growth inhibition
  MIC: 268 µM (≈ 125 µg/mL)
[4]
  IC50: 0.01 to 0.015 µM
  Kd: ≤ 0.001 µM
  Ki: 0.00035 ± 0.00027 µM
  slope of IC50 versus YbtE concentration: 0.43
  slope of IC50 versus YbtE concentration, corrected: 0.52
[4]; read-out: IC50, inhibition of adenylation activity
  IC50: 0.0147 ± 0.002 µM
[4]; read-out: Ki (non-competitive with respect to salicylate)
  Ki: 0.00108 ± 0.00098 µM
[3]
  activity on growth: not active
[3]; Yersinia pestis, read-out: IC50, bacterial growth in iron-limiting media
  IC50: 25 to 52 µM
[3]; Yersinia pestis, read-out: IC50, growth inhibition
  IC50: ~50 µM
[3]; Yersinia pestis, read-out: MIC95, growth inhibition
  MIC: 96.7 µM (≈ 45.1 µg/mL)
[3]; read-out: IC50, growth inhibition
  IC50: 51.2 ± 4.7 µM

## O=C(NS(=O)(=O)OC[C@H]1O[C@@H](n2ccc3ccccc32)[C@H](O)[C@@H]1O)c1ccccc1O [salicyl-IRMS, β-indolyl 5′-O—(N-salicylsulfamoyl)ribose]
[1]; IC50
  IC50: 0.021 µM
[2]; [10]
  IC50: > 200 µM
  MIC90: > 200 µM
[3]; Yersinia pestis
  IC50: > 500 µM
  MIC90: > 500 µM

## Nc1ncnc2c1ncn2[C@H]1C[C@H](O)[C@@H](COS(=O)(=O)NC(=O)c2ccccc2O)O1 [salicyl-dAMS]
[1]; IC50
  IC50: 0.008 µM and 0.014 µM

## Nc1ncnc2c1ncn2[C@H]1CC[C@@H](COS(=O)(=O)NC(=O)c2ccccc2O)O1 [salicyl-ddAMS]
[2]; [10]
  MIC90: ~200 µM (≈ 86.9 µg/mL)

## O=C(O)c1ccccc1O [salicylate]
[4]; read-out: Km salicylate
  Km: 5.4 µM
[5]; read-out: Km salicylate
  Km: 4.6 µM

## [H]/N=C(/N)N[C@H]1[C@H](O)[C@@H](O)[C@H](O[C@@H]2O[C@@H](C)[C@](O)(C=O)[C@H]2O[C@@H]2O[C@@H](CO)[C@H](O)[C@@H](O)[C@@H]2NC)[C@@H](N/C(N)=N\[H])[C@@H]1O [streptomycin]
[8]
  MIC: 0.4 to 1.7 µM
[9]
  MIC: 2.6 to 6.9 µM
